Reference: ChEMBL document CHEMBL3885861, “Open TG-GATES”

Organism: Rattus norvegicus
Assay: Open TG-GATES - Regimen: Daily Repeat
Assay type: toxicity, organism-based, Sprague-Dawley
Parameters: regimen Daily Repeat, gender Male, age 6 weeks
Conditions: in vivo, po, 0 mg/kg, route gavage, dose level Control; for APTT / Bas / Eos / Fbg / Hb / Ht / Lym / MCH / MCHC / MCV / Mono / Neu / PT / Plat / RBC / Ret / WBC: tissue Blood; for KIDNEY_L / KIDNEY_R / KIDNEY_TOTAL: tissue Kidney; for LIVER: tissue Liver; for A/G / ALP / ALT / AST / BUN / CRE / Ca / Cl / DBIL / GLC / IP / K / LDH / Na / PL / RALB / TBIL / TC / TG / TP / gamma-GTP: tissue Plasma

C[C@]12CCC(=O)C=C1CC[C@@H]1[C@@H]2CC[C@@]2(C)[C@H]1CC[C@]2(C)O [METHYLTESTOSTERONE]
TERMINAL_BW (72 h, time 3 day): 237.3 g
APTT (72 h, time 3 day): 16.2 s
Bas (72 h, time 3 day): 0%
Eos (72 h, time 3 day): 1.2%
Fbg (72 h, time 3 day): 280 mg/dL
Hb (72 h, time 3 day): 13.4 g/dL
Ht (72 h, time 3 day): 38.9%
Lym (72 h, time 3 day): 78.4%
MCH (72 h, time 3 day): 21.6 pg
MCHC (72 h, time 3 day): 34.4%
MCV (72 h, time 3 day): 62.7 fL
Mono (72 h, time 3 day): 2.4%
Neu (72 h, time 3 day): 17.4%
PT (72 h, time 3 day): 12.9 s
Plat (72 h, time 3 day): 119.6 x10_4/uL
RBC (72 h, time 3 day): 619.6 x10_4/ul
Ret (72 h, time 3 day): 6.7%
WBC (72 h, time 3 day): 73.9 x10_2/uL
KIDNEY_L (72 h, time 3 day): 1 g
KIDNEY_R (72 h, time 3 day): 1 g
KIDNEY_TOTAL (72 h, time 3 day): 2 g
LIVER (72 h, time 3 day): 10.9 g
A/G (72 h, time 3 day): 0.9
ALP (72 h, time 3 day): 1982.8 IU/L
ALT (72 h, time 3 day): 45.6 IU/L
AST (72 h, time 3 day): 73.2 IU/L
BUN (72 h, time 3 day): 15.2 mg/dL
CRE (72 h, time 3 day): 0.2 mg/dL
Ca (72 h, time 3 day): 10.9 mg/dL
Cl (72 h, time 3 day): 108.2 meq/L
DBIL (72 h, time 3 day): 0.014 mg/dL
GLC (72 h, time 3 day): 186.4 mg/dL
IP (72 h, time 3 day): 7.5 mg/dL
K (72 h, time 3 day): 4.2 meq/L
LDH (72 h, time 3 day): 54.4 IU/L
Na (72 h, time 3 day): 142.6 meq/L
PL (72 h, time 3 day): 142.8 mg/dL
RALB (72 h, time 3 day): 2.6 g/dL
TBIL (72 h, time 3 day): 0.028 mg/dL
TC (72 h, time 3 day): 77.8 mg/dL
TG (72 h, time 3 day): 87.2 mg/dL
TP (72 h, time 3 day): 5.6 g/dL
gamma-GTP (72 h, time 3 day): 1 IU/L
TERMINAL_BW ([…], time 7 day): 278.3 g
TERMINAL_BW ([…], time 14 day): 322 g
TERMINAL_BW ([…], time 28 day): 397.8 g
APTT ([…], time 7 day): 16.6 s
Bas ([…], time 7 day): 0%
Eos ([…], time 7 day): 0.8%
Fbg ([…], time 7 day): 272 mg/dL
Hb ([…], time 7 day): 13.4 g/dL
Ht ([…], time 7 day): 39%
Lym ([…], time 7 day): 81.8%
MCH ([…], time 7 day): 21.4 pg
MCHC ([…], time 7 day): 34.3%
MCV ([…], time 7 day): 62.6 fL
Mono ([…], time 7 day): 2.2%
Neu ([…], time 7 day): 15%
PT ([…], time 7 day): 13.1 s
Plat ([…], time 7 day): 136.7 x10_4/uL
RBC ([…], time 7 day): 623.8 x10_4/ul
Ret ([…], time 7 day): 5.6%
WBC ([…], time 7 day): 87.3 x10_2/uL
APTT ([…], time 14 day): 15.9 s
Bas ([…], time 14 day): 0.2%
Eos ([…], time 14 day): 1%
Fbg ([…], time 14 day): 288.4 mg/dL
Hb ([…], time 14 day): 14.7 g/dL
Ht ([…], time 14 day): 42.6%
Lym ([…], time 14 day): 80.6%
MCH ([…], time 14 day): 20.7 pg
MCHC ([…], time 14 day): 34.6%
MCV ([…], time 14 day): 59.8 fL
Mono ([…], time 14 day): 2.6%
Neu ([…], time 14 day): 15.4%
PT ([…], time 14 day): 12.8 s
Plat ([…], time 14 day): 112.1 x10_4/uL
RBC ([…], time 14 day): 713 x10_4/ul
Ret ([…], time 14 day): 3.6%
WBC ([…], time 14 day): 88 x10_2/uL
APTT ([…], time 28 day): 17.5 s
Bas ([…], time 28 day): 0%
Eos ([…], time 28 day): 1.2%
Fbg ([…], time 28 day): 269.8 mg/dL
Hb ([…], time 28 day): 15.7 g/dL
Ht ([…], time 28 day): 44.4%
Lym ([…], time 28 day): 78.2%
MCH ([…], time 28 day): 19.7 pg
MCHC ([…], time 28 day): 35.4%
MCV ([…], time 28 day): 55.9 fL
Mono ([…], time 28 day): 2%
Neu ([…], time 28 day): 17.6%
PT ([…], time 28 day): 13.5 s
Plat ([…], time 28 day): 106.1 x10_4/uL
RBC ([…], time 28 day): 794.6 x10_4/ul
Ret ([…], time 28 day): 2.1%
WBC ([…], time 28 day): 94.3 x10_2/uL
KIDNEY_L ([…], time 7 day): 1.2 g
KIDNEY_R ([…], time 7 day): 1.1 g
KIDNEY_TOTAL ([…], time 7 day): 2.3 g
KIDNEY_L ([…], time 14 day): 1.2 g
KIDNEY_R ([…], time 14 day): 1.2 g
KIDNEY_TOTAL ([…], time 14 day): 2.5 g
KIDNEY_L ([…], time 28 day): 1.4 g
KIDNEY_R ([…], time 28 day): 1.4 g
KIDNEY_TOTAL ([…], time 28 day): 2.8 g
LIVER ([…], time 7 day): 12.2 g
LIVER ([…], time 14 day): 13.6 g
LIVER ([…], time 28 day): 14.9 g
A/G ([…], time 7 day): 0.9
ALP ([…], time 7 day): 1755.8 IU/L
ALT ([…], time 7 day): 41.2 IU/L
AST ([…], time 7 day): 71.6 IU/L
BUN ([…], time 7 day): 16.4 mg/dL
CRE ([…], time 7 day): 0.2 mg/dL
Ca ([…], time 7 day): 11 mg/dL
Cl ([…], time 7 day): 104.8 meq/L
DBIL ([…], time 7 day): 0.018 mg/dL
GLC ([…], time 7 day): 192.4 mg/dL
IP ([…], time 7 day): 7.5 mg/dL
K ([…], time 7 day): 4 meq/L
LDH ([…], time 7 day): 68.4 IU/L
Na ([…], time 7 day): 142 meq/L
PL ([…], time 7 day): 136.4 mg/dL
RALB ([…], time 7 day): 2.7 g/dL
TBIL ([…], time 7 day): 0.028 mg/dL
TC ([…], time 7 day): 73 mg/dL
TG ([…], time 7 day): 100.6 mg/dL
TP ([…], time 7 day): 5.8 g/dL
gamma-GTP ([…], time 7 day): 1.2 IU/L
A/G ([…], time 14 day): 0.8
ALP ([…], time 14 day): 1238.8 IU/L
ALT ([…], time 14 day): 51.8 IU/L
AST ([…], time 14 day): 71.4 IU/L
BUN ([…], time 14 day): 16.4 mg/dL
CRE ([…], time 14 day): 0.2 mg/dL
Ca ([…], time 14 day): 10.6 mg/dL
Cl ([…], time 14 day): 105.8 meq/L
DBIL ([…], time 14 day): 0.018 mg/dL
GLC ([…], time 14 day): 187 mg/dL
IP ([…], time 14 day): 7 mg/dL
K ([…], time 14 day): 4.2 meq/L
LDH ([…], time 14 day): 96.2 IU/L
Na ([…], time 14 day): 141.6 meq/L
PL ([…], time 14 day): 144 mg/dL
RALB ([…], time 14 day): 2.7 g/dL
TBIL ([…], time 14 day): 0.032 mg/dL
TC ([…], time 14 day): 75.6 mg/dL
TG ([…], time 14 day): 127 mg/dL
TP ([…], time 14 day): 5.9 g/dL
gamma-GTP ([…], time 14 day): 1.2 IU/L
A/G ([…], time 28 day): 0.8
ALP ([…], time 28 day): 1136 IU/L
ALT ([…], time 28 day): 37.8 IU/L
AST ([…], time 28 day): 62.2 IU/L
BUN ([…], time 28 day): 16.4 mg/dL
CRE ([…], time 28 day): 0.2 mg/dL
Ca ([…], time 28 day): 11.3 mg/dL
Cl ([…], time 28 day): 105.4 meq/L
DBIL ([…], time 28 day): 0.016 mg/dL
GLC ([…], time 28 day): 182.6 mg/dL
IP ([…], time 28 day): 6.2 mg/dL
K ([…], time 28 day): 3.9 meq/L
LDH ([…], time 28 day): 59.8 IU/L
Na ([…], time 28 day): 143 meq/L
PL ([…], time 28 day): 127.8 mg/dL
RALB ([…], time 28 day): 2.8 g/dL
TBIL ([…], time 28 day): 0.03 mg/dL
TC ([…], time 28 day): 63.4 mg/dL
TG ([…], time 28 day): 120.6 mg/dL
TP ([…], time 28 day): 6.2 g/dL
gamma-GTP ([…], time 28 day): 0.8 IU/L
